The target of assay [1] is Disintegrin and metalloproteinase domain-containing protein 17 (Homo sapiens, UniProt P78536). In words: Inhibition of TACE by FRET assay.
The target of assay [2] is Disintegrin and metalloproteinase domain-containing protein 17 (Mus musculus, UniProt Q9Z0F8). Briefly: Inhibition of TACE in mouse Raw264.7 cells assessed as inhibition of LPS-induced TNFalpha production treated 1 hr before LPS challenge measured 4 hrs post LPS challenge. The assay is classed as cell-based.
Sequence of Disintegrin and metalloproteinase domain-containing protein 17 (Mus musculus, UniProt Q9Z0F8) (Q9Z0F8 whole entry, the tested form may be a part): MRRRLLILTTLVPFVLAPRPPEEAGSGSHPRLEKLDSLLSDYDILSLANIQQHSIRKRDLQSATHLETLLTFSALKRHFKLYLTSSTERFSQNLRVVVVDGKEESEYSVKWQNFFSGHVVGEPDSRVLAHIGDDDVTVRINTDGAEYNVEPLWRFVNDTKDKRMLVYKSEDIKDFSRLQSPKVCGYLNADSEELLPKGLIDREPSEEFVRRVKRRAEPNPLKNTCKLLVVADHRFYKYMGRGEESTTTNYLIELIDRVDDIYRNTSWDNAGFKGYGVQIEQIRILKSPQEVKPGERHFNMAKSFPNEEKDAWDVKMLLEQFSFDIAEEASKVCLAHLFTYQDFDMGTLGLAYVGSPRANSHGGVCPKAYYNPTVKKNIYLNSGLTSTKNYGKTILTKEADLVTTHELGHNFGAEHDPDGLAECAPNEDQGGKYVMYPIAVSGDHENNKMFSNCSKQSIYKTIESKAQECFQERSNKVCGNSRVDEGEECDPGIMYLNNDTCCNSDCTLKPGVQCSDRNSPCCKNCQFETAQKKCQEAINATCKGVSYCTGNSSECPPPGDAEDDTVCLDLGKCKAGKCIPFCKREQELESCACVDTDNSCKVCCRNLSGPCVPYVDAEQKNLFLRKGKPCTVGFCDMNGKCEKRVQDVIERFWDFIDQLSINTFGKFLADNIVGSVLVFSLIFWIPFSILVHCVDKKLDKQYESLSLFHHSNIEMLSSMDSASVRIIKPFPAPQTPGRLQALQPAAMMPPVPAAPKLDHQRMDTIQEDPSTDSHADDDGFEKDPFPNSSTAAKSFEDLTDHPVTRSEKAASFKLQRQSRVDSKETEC
The target in another assay is T1, Interstitial collagenase (Homo sapiens, UniProt P03956).
T1 sequence (P03956 whole entry): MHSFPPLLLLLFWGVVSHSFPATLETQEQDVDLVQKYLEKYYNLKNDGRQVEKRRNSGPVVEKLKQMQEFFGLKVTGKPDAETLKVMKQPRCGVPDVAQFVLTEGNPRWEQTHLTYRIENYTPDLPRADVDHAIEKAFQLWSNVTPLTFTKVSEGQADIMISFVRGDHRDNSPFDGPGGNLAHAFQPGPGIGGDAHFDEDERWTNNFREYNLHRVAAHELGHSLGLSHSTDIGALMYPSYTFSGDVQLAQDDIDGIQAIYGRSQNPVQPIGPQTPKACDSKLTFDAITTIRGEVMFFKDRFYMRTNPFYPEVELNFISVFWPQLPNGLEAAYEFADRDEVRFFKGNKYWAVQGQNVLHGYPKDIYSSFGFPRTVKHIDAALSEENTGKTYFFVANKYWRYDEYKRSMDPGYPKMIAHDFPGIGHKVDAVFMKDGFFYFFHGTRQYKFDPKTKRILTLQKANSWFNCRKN
Briefly: Inhibition of MMP1 by FRET assay.

A further assay has as its target Collagenase 3 (Homo sapiens, UniProt P45452). In words: Inhibition of MMP13 by […] assay.
The target in assay [3] is Matrix metalloproteinase-14 (Homo sapiens, UniProt P50281). In words: Inhibition of MMP14 by […] assay.
Assay [4] has as its target 72 kDa type IV collagenase (Homo sapiens, UniProt P08253). Briefly: Inhibition of MMP2 by […] assay.

Structures are written as SMILES.

Sequence of Disintegrin and metalloproteinase domain-containing protein 17 (Homo sapiens, UniProt P78536) (P78536 whole entry, the tested form may be a part): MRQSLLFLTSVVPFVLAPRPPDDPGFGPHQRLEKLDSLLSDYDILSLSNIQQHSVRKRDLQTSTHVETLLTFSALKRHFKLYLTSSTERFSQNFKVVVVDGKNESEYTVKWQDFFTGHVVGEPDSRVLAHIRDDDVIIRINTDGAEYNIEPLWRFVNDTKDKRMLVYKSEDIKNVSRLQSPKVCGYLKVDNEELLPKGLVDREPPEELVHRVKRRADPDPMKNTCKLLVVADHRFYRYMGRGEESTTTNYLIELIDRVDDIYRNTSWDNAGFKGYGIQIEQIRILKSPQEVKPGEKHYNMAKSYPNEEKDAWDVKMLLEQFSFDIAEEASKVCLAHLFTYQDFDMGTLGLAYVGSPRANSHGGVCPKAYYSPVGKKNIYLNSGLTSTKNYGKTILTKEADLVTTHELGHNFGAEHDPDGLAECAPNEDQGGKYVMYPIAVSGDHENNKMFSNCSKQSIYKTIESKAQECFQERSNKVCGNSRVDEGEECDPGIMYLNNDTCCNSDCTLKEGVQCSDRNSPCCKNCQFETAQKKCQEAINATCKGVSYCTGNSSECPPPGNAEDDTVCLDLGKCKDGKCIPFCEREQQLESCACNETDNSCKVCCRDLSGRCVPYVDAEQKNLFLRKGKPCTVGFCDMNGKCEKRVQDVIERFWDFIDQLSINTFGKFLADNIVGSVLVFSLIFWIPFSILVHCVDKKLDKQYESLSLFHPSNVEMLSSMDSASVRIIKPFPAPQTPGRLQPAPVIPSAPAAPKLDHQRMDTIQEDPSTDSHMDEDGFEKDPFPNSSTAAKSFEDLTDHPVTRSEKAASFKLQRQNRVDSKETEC
Sequence of 72 kDa type IV collagenase (P08253 whole entry): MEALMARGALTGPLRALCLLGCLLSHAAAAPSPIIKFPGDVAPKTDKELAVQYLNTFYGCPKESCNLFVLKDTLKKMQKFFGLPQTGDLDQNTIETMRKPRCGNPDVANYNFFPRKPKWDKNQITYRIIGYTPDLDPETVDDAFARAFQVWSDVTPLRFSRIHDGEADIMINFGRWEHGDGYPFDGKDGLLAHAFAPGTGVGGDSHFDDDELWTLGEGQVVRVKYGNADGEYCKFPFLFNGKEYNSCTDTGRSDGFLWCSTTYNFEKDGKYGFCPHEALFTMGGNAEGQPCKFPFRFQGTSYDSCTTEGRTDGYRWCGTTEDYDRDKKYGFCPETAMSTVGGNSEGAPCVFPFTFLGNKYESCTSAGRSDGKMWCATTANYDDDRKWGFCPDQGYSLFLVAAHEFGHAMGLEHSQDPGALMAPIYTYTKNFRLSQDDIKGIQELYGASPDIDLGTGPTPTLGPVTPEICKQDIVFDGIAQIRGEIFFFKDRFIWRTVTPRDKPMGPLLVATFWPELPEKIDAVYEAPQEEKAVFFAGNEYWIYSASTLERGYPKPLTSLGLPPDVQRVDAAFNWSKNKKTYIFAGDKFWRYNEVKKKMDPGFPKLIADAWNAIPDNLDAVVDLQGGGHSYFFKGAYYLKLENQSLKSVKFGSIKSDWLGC

What is called IC50 is the concentration needed to halve the response being measured. As for `CC#CCOc1ccc(S(=O)(=O)N[C@H](Cc2cn(C)c3ccccc23)C(=O)O)cc1`, the IC50 in assay [1] was 1430 nM.
For the compound `CC#CCOc1ccc(S(=O)(=O)N[C@H](Cc2cn(Cc3ccc(OC)cc3)c3ccccc23)C(=O)O)cc1`, the IC50 in assay [2] is over 100000 nM; on Interstitial collagenase it was over 50000 nM.
The compound `CC#CCOc1ccc(S(=O)(=O)NC(Cc2c(C)n(Cc3cccc(C#N)c3)c3ccc(OC)cc23)C(=O)O)cc1` (configuration not stated) registered an IC50 in assay [1] of 410 nM.
On to `CC#CCOc1ccc(S(=O)(=O)N[C@H](Cc2cn(CC3CCC3)c3ccccc23)C(=O)O)cc1`, for which, in assay [1], the IC50 is 1710 nM.
For `CC#CCOc1ccc(S(=O)(=O)N[C@H](Cc2c[nH]c3ccc(C)cc23)C(=O)O)cc1`, the IC50 was 1810 nM against Collagenase 3; 7800 nM in assay [2]; 6820 nM in assay [3]; over 50000 nM against Interstitial collagenase; 270 nM in assay [4].
In turn, `CC#CCOc1ccc(S(=O)(=O)NC(Cc2cn(Cc3ccc4c(c3)OCO4)c3ccc(OC)cc23)C(=O)O)cc1` (racemic) registered an IC50 in assay [1] of 1500 nM.
Same read-out and setting: the same measure for `CC#CCOc1ccc(S(=O)(=O)NC(Cc2c[nH]c3cc(C)ccc23)C(=O)O)cc1` (racemic): 1570 nM.
Same read-out and setting: the same measure for `CC#CCOc1ccc(S(=O)(=O)NC(Cc2c[nH]c3ccc(Br)cc23)C(=O)O)cc1` (racemic): 630 nM.
On the same count and under the same terms, the same measure for `CC#CCOc1ccc(S(=O)(=O)NC(Cc2cn(C)c3ccc(C(=O)O)cc23)C(=O)O)cc1` (racemic): over 100000 nM; for `CC#CCOc1ccc(S(=O)(=O)NC(Cc2cn(CC(C)C)c3ccc(OC)cc23)C(=O)O)cc1` (racemic): 1230 nM.
Consider `CC#CCOc1ccc(S(=O)(=O)NC(Cc2c(C)n(CC(C)C)c3ccc(Cl)cc23)C(=O)O)cc1` (racemic), for which inhibition in assay [1] was half-maximal at 300 nM (IC50).
On the same count and under the same terms, next, `CC#CCOc1ccc(S(=O)(=O)NC(Cc2cn(CC)c3ccc(C(=O)O)cc23)C(=O)O)cc1` (racemic): over 100000 nM; `CC#CCOc1ccc(S(=O)(=O)NC(Cc2c(C)n(Cc3ccc(Cl)cc3)c3ccc(OC)cc23)C(=O)O)cc1` (racemic): 290 nM.
Same read-out and setting: next, `CC#CCOc1ccc(S(=O)(=O)NC(Cc2c(C)n(Cc3cccc(F)c3)c3ccc(OC)cc23)C(=O)O)cc1` (racemic): 340 nM; `CC#CCOc1ccc(S(=O)(=O)NC(Cc2c(C)n(Cc3ccc(C#N)cc3)c3ccc(OC)cc23)C(=O)O)cc1` (racemic): 470 nM; `CC#CCOc1ccc(S(=O)(=O)NC(Cc2c(C)n(Cc3ccccc3F)c3ccc(OC)cc23)C(=O)O)cc1` (racemic): 300 nM.
Same read-out and setting: the same measure for `CC#CCOc1ccc(S(=O)(=O)NC(Cc2c(C)n(Cc3ccc(OC)cc3)c3ccc(Cl)cc23)C(=O)O)cc1` (racemic): 190 nM; for `CC#CCOc1ccc(S(=O)(=O)NC(Cc2c(C)n(Cc3ccccc3)c3ccc(OC)cc23)C(=O)O)cc1` (racemic): 250 nM; for `CC#CCOc1ccc(S(=O)(=O)NC(Cc2c(C)n(Cc3cccc(OC)c3)c3ccc(OC)cc23)C(=O)O)cc1` (racemic): 280 nM.
The compound `CC#CCOc1ccc(S(=O)(=O)NC(Cc2cn(Cc3ccccc3F)c3ccc(OC)cc23)C(=O)O)cc1` (racemic) showed an IC50 in assay [1] of 2240 nM.
On the same count and under the same terms, next, `CC#CCOc1ccc(S(=O)(=O)NC(Cc2c[nH]c3ccc(O)cc23)C(=O)O)cc1` (racemic): 1610 nM; `CC#CCOc1ccc(S(=O)(=O)NC(Cc2c[nH]c3ccc(F)cc23)C(=O)O)cc1` (racemic): 1560 nM.
Same read-out and setting: next, `CC#CCOc1ccc(S(=O)(=O)NC(Cc2c[nH]c3cc(F)ccc23)C(=O)O)cc1` (racemic): 2960 nM; `CC#CCOc1ccc(S(=O)(=O)NC(Cc2c(C)n(Cc3ccc(F)cc3)c3ccc(OC)cc23)C(=O)O)cc1` (racemic): 320 nM.
On the same count and under the same terms, next, `CC#CCOc1ccc(S(=O)(=O)NC(Cc2cn(Cc3ccccc3)c3ccc(C(=O)O)cc23)C(=O)O)cc1` (racemic): over 100000 nM.
In assay [1], `CC#CCOc1ccc(S(=O)(=O)NC(Cc2c(C)n(Cc3ccc(Cl)cc3)c3ccc(Cl)cc23)C(=O)O)cc1` (racemic) yielded an IC50 of 330 nM.
Consider `CC#CCOc1ccc(S(=O)(=O)NC(Cc2cn(Cc3ccc(OC)cc3)c3ccc(C)cc23)C(=O)O)cc1` (racemic), for which it took 890 nM to reach half-maximal inhibition in assay [1] (IC50).
For `CC#CCOc1ccc(S(=O)(=O)NC(Cc2c(C)n(C)c3ccc(OC)cc23)C(=O)O)cc1` (racemic), in assay [1], the IC50 turned out to be 900 nM.
Same read-out and setting: next, `CC#CCOc1ccc(S(=O)(=O)NC(Cc2cn(Cc3cccc(OC)c3)c3ccc(OC)cc23)C(=O)O)cc1` (racemic): 2240 nM.
Still for that read-out and setting: next, `CC#CCOc1ccc(S(=O)(=O)NC(Cc2c[nH]c3ccc(OC)cc23)C(=O)O)cc1` (single isomer, unassigned; enantiomer 1): 10100 nM.
Take `CC#CCOc1ccc(S(=O)(=O)NC(Cc2c[nH]c3ccc(OCc4ccccc4)cc23)C(=O)O)cc1` (single isomer, unassigned; enantiomer 2): the IC50 on Collagenase 3 was 4440 nM; in assay [1], 370 nM; in assay [3], 19700 nM; on Interstitial collagenase, over 50000 nM; in assay [4], 3270 nM.
For `CC#CCOc1ccc(S(=O)(=O)NC(Cc2c[nH]c3ccc(OC)cc23)C(=O)O)cc1` (single isomer, unassigned; enantiomer 2), the IC50 is 13600 nM against Collagenase 3; 57000 nM in assay [2]; 140 nM in assay [1]; 20700 nM in assay [3]; over 50000 nM against Interstitial collagenase; 1270 nM in assay [4].
The compound `CC#CCOc1ccc(S(=O)(=O)NC(Cc2c[nH]c3ccc(OCc4ccccc4)cc23)C(=O)O)cc1` (stereo in doubt; 11h) returned an IC50 in assay [1] of 6980 nM.

The values are drawn from ChEMBL document CHEMBL1137760, “Synthesis and activity of tryptophan sulfonamide derivatives as novel non-hydroxamate TNF-alpha converting enzyme (TACE) inhibitors” (Bioorg Med Chem, 2009).
